Assays:
Assay type in all cases: physicochemical
[1] = Antioxidant activity assessed as alkoxyl radical scavenging activity by measuring relative rate constant (kAOx/kST ratio) using DMPO spin trap by ESR spin-trapping method
[2] = Antioxidant activity assessed as methyl radical scavenging activity by measuring relative rate constant (kAOx/kST ratio) using DMPO spin trap by ESR spin-trapping method
[3] = Antioxidant activity assessed as rate constant for superoxide anion radical scavenging activity using CYPMPO spin trap by ESR spin-trapping method
[4] = Antioxidant activity assessed as rate constant for methyl radical scavenging activity using DMPO spin trap by ESR spin-trapping method
[5] = Antioxidant activity assessed as hydroxyl radical scavenging activity by measuring relative rate constant (kAOx/kST ratio) using DMPO spin trap by ESR spin-trapping method
[6] = Antioxidant activity assessed as rate constant for alkoxyl radical scavenging activity using DMPO spin trap by ESR spin-trapping method
[7] = Antioxidant activity assessed as singlet oxygen radical scavenging activity by measuring relative rate constant (kAOx/kST ratio) using 4-HO-TEMP spin trap by ESR spin-trapping method
[8] = Antioxidant activity assessed as rate constant for hydroxyl radical scavenging activity using DMPO spin trap by ESR spin-trapping method
[9] = Antioxidant activity assessed as superoxide anion radical scavenging activity by measuring relative rate constant (kAOx/kST ratio) using CYPMPO spin trap by ESR spin-trapping method
[10] = Antioxidant activity assessed as peroxyl radical scavenging activity by measuring relative rate constant (kAOx/kST ratio) using CYPMPO spin trap by ESR spin-trapping method
[11] = Antioxidant activity assessed as rate constant for singlet oxygen radical scavenging activity using 4-HO-TEMP spin trap by ESR spin-trapping method

Row | Ratio [1] | Ratio [2] | K [3] | K [4] [×10⁷ /M/s] | Ratio [5] | K [6] [×10⁴ /M/s] | Ratio [7] | K [8] | Ratio [9] | Ratio [10] | K [11] | SMILES
1 | 28.1 | 1.82 | 3.3 ×10⁴ /M/s | 2.55 | 14.7 | 3.57 | 84.4 | 4.11 ×10¹⁰ /M/s | 687 | 32.5 | 7.59 ×10⁶ /M/s | NC(Cc1ccc(O)c(O)c1)C(=O)O (racemic)
2 | 27.4 | 1.85 | 2.07 ×10⁵ /M/s | 2.59 | 0.91 | 3.48 | 215 | 2.55 ×10⁹ /M/s | 4308 | 19.3 | 1.93 ×10⁷ /M/s | N[C@@H](Cc1ccc(O)c(O)c1)C(=O)O [LEVODOPA]
